Measurements taken from patent US20120010206A1, “IMIDAZOLOPYRIDINE COMPOUNDS USEFUL FOR THE TREATMENT OF DEGENERATIVE AND INFLAMMATORY DISEASES” (priority 2006, published 2012).

How the values were obtained:
[1] = molecular target: T1, TAK1-TAB1 fusion protein (Homo sapiens, UniProt O43318); assay: In vitro TAK1 kinase assay (33P-ATP, casein substrate); type: biochemical; settings: semi-quantitative score, at least two independent experiments
T1 construct: purchased Upstate 14-600
T1 sequence (O43318 with tags, fused parts or gaps limits assumed): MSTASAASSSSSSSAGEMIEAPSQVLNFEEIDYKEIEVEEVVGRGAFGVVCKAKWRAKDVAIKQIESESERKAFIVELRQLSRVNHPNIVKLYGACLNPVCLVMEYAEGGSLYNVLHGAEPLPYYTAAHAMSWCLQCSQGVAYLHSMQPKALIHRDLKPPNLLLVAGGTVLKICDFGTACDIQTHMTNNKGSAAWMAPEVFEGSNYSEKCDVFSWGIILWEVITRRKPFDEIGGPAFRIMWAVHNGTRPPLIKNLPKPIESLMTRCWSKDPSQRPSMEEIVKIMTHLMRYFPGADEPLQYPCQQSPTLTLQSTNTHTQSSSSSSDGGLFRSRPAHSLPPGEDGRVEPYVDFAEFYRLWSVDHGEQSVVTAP
Procedure: For assessing TAK1 inhibition, active TAK1-TAB1 fusion protein was used from Upstate (Cat. No, 14-600). Kinase reactions are set up in 96-well polypropylene plates in 25 μL containing 0.5 mU TAK1-TAB1 fusion protein, […], 0.01 μCi/μL [^33P]-γ-ATP, 0.1 mg/mL casein substrate in 1× reaction buffer containing 10 mM MOPS pH 7.0, 1 mM EDTA.
Starting from the compound master stocks (all at 10 mM concentration in 100% DMSO) a 3-fold serial dilution is made in 96-well plates in 100% DMSO. Plates are further diluted […] in H2O containing 3.5% DMSO, to obtain an intermediate work stock with compounds at 5× the final assay concentration in 5% DMSO.
5 μL of the intermediate stock is transferred into V-bottom 96 well polypropylene plates and 11 μL of Enzyme mix is added. Enzyme mix is made by combining 5 μL 5× reaction buffer ([…] pH 7.0, 1 mM EDTA), 5 μL casein (Sigma) diluted in H2O to 0.5 mg/mL and 1 μL of TAK1-TAB1 fusion protein that was prediluted to 0.5 mU/μL in 1× enzyme dilution buffer (20 mM MOPS pH 7.0, 0.1 mM EDTA, 0.01% Brij-35, 5% glycerol, 1 mM DTT, 1 mg/ml BSA).
The reactions are started by the addition of 9 μL of mixture containing ATP (20.83 uM) and [^33P]-γ-ATP (0.028 μCi/μL).
The assay is stopped 90 minutes after incubation at 30° C. by the addition of 25 μL phosphoric acid (150 mM). The label incorporated into the casein substrate is separated from labeled unincorporated ATP by filtration onto 96-well filter plates using a harvester device. After 6 washes with 75 mM phosphoric acid, the bottom of the filter plates are sealed, and incorporated label is quantified after addition of 40 μL scintillation fluid using TopCount.
Based on these percent inhibition data obtained in at least two independent experiments for the compounds, compounds are ranked using semi-quantitative scores. Table A below lists a number of compounds which have been or can be prepared according to the synthetic methods described herein. Semi-quantitative score: • *>3001 nM • ** 1001-3000 nM • *** 101-1000 nM • ****<100 nM

[2] = system: MMP1 expression from activated SFs (RASF); assay: MMP assay: MMP1 expression (ELISA) by TNF-α-triggered RASFs; type: cell-based; settings: RASF triggered with TNFα, MMP1 ELISA after 48 hrs, semi-quantitative score
Procedure: A 384-well format ELISA for measurement of MMP1 is developed. Various primary antibodies are tested, as well as various ELISA protocols. The following protocol is developed and validated to measure MMP1 levels in SF supernatant in 384 well plates: white Lumitrac 600 384 well plates (Greiner) are coated with 2 μg/mL anti-MMP1 antibody MAB1346 (Chemicon). The antibody is diluted in buffer 40 (1.21 g Tris base (Sigma), 0.58 g NaCl (Calbiochem) and 5 mL 10% NaN3 (Sigma) in 1 L milliQ water and adjusted to pH 8.5). After overnight incubation at 4° C., plates are washed with PBS (80 g NaCl, 2 g KCl (Sigma), 11.5 g Na2HPO4.7H2O and 2 g KH2PO4 in 10 L milliQ; pH 7.4) and blocked with 100 μL/well Casein buffer (2% Casein (VWR International) in PBS). Next day, casein buffer is removed from ELISA plates and replaced by 50 μL/well EC buffer (4 g casein, 2.13 g Na2HPO4 (Sigma), 2 g bovine albumin (Sigma), 0.69 g NaH2PO4.H2O (Sigma), 0.5 g CHAPS (Roche), 23.3 g NaCl, 4 mL 0.5 M EDTA pH 8 (Invitrogen), 5 mL 10% NaN3 in 1 L milliQ and adjusted to pH 7.0). 0.25 mM DTT (Sigma) is added to the thawed sample plates. After removal of the EC buffer, 20 μL of sample is transferred to the ELISA plates. After overnight incubation at 4° C. plates are washed twice with PBS and once with PBST (PBS with 0.05% Tween-20 (Sigma)) and incubated with 35 μL/well biotinylated anti-MMP1 antibody solution (R&D). This secondary antibody is diluted in buffer C (0.82 g NaH2PO4.H2O, 4.82 g Na2HPO4, 46.6 g NaCl, 20 g bovine albumin and 4 ml, 0.5M EDTA pH 8 in 2 L milliQ and adjusted to pH 7.0) at a concentration of 5 μg/mL. After 2 h of incubation at RT, plates are washed as described above and incubated with 50 μL/well streptavidin-HRP conjugate (Biosource). Streptavidin-HRP conjugate is diluted in buffer C at a concentration of 0.25 μg/mL. After 45 min, plates are washed as described above and incubated for 5 min with 50 μL/well BM Chem ELISA Substrate (Roche). Readout is performed on the Luminoscan Ascent Luminometer (Labsystems) with an integration time of 200 msec or with an Envision reader (Perkin Elmer).
SFs were acquired at passage 1 from a commercial supplier (Cell applications, Inc.). SFs are cultured in DMEM supplemented with 10% heat-inactivated FBS, 1× penicillin/streptomycin (Invitrogen) at 37° C., 10% CO2 until passage 6. Aliquots of the cells are frozen and cryopreserved in liquid nitrogen. Starting from a cryopreserved aliquot, cells are further expanded by sub-culturing cells at 1/3 ratio every week. Cells between passage 10 and 12 are routinely used in compound testing according to the following protocol.
Starting from the compound master stocks (all at 10 mM concentration in 100% DMSO) a 3-fold serial dilution is made in 96-well plates in 100% DMSO. Then, plates are further diluted 45-fold in M199 medium supplemented with 1% heat-inactivated FBS to obtain a intermediate work stock.
At day 1, RASFs are seeded in 96 well plates (flat bottom, tissue culture treated, Greiner) at a density of 3000 cells/well in complete synovial growth medium (Cell Applications). Day 5, the medium is completely removed from the cells, and replaced by 81 μL of M199 medium supplemented with 1% heat-inactivated FBS followed by addition of 10 μL compound out of the intermediate work stock. After an incubation period of 90 minutes, which allows the compounds to equilibrate and enter the cells, cells are stimulated with either TNF-α or ‘complex trigger’. TNF-α trigger is added in a volume of […] to obtain final concentration of 10 ng/mL. For that, TNF-α stock (PeproTech) at 10 μg/mL was diluted to 100 ng/mL TNF-α in M199 medium supplemented with 1% FBS. ‘Complex trigger’ mix is added in a volume of 20 μL to obtain a final concentration of 12.5%. For that, ‘complex trigger’ mix, is diluted to 80% with M199 medium supplemented with 1% FBS. […]

| IC50 [1] [µM] | EC50 [2] [µM] | SMILES |
| --- | --- | --- |
| 1 to 3 | 1 to 3 | O=c1cc(-c2ccc(Nc3ccc(N4CCN(C5CC5)CC4)cc3)c3nccn23)cc[nH]1 [Compound 88] |
| 0.101 to 1 | 1 to 3 | Fc1cc(Nc2ccc(-c3cn[nH]c3)n3ccnc23)ccc1N1CCOCC1 [Compound 69] |
| 0.101 to 1 | 0.101 to 1 | CC(C)N1CCN(c2ccc(Nc3ccc(-c4cn[nH]c4)n4ccnc34)cc2)CC1 [Compound 6, [4-(4-Isopropyl-piperazin-1-yl)-phenyl]-[5-(1H-pyrazol-4-yl)-imidazo[1,2-a]pyridin-8-yl]-amine] |
| 0.101 to 1 | 1 to 3 | CS(=O)(=O)c1ccc(Nc2ccc(-c3cc[nH]c(=O)c3)n3ccnc23)cc1 [Compound 64] |
| 0.101 to 1 | > 3 | CN(C)CCCNC(=O)c1ccc(Nc2ccc(-c3ccc4c(c3)CNC4=O)n3ccnc23)cc1 [Compound 50, -(3-(dimethylamino)propyl)-4-(5-(1-oxoisoindolin-5-yl)imidazo[1,2-a]pyridin-8-ylamino)benzamide] |
| < 0.1 | > 3 | O=C(NCCN1CCCC1)c1ccc(Nc2ccc(-c3ccc4c(c3)CNC4=O)n3ccnc23)cc1 [Compound 34, 4-(5-(1-oxoisoindolin-5-yl)imidazo[1,2-a]pyridin-8-ylamino)-N-(2-(pyrrolidin-1-yl)ethyl)benzamide] |
| > 3 | 0.101 to 1 | NC(=O)c1ccc(-c2ccc(Nc3ccc(N4CCOCC4)c(F)c3)c3nccn23)cc1Cl [Compound 73] |
| 0.101 to 1 | 0.101 to 1 | CCCN1CCN(c2ccc(Nc3ccc(-c4ccc(C(N)=O)cc4)n4ccnc34)cc2)CC1 [Compound 76] |
| 0.101 to 1 | > 3 | COCCN(C)C(=O)c1ccc(Nc2ccc(-c3ccc4c(c3)CNC4=O)n3ccnc23)cc1 [Compound 38, N-(2-methoxyethyl)-N-methyl-4-(5-(1-oxoisoindolin-5-yl)imidazo[1,2-a]pyridin-8-ylamino)benzamide] |
| 1 to 3 | > 3 | O=C(Nc1ccccc1)c1ccc(Nc2ccc(-c3ccc4c(c3)CNC4=O)n3ccnc23)cc1 [Compound 17, 4-(5-(1-oxoisoindolin-5-yl)imidazo[1,2-a]pyridin-8-ylamino)-N-phenylbenzamide] |
| 0.101 to 1 | 0.101 to 1 | O=c1cc(-c2ccc(Nc3ccc(N4CCC(N5CCCCC5)CC4)cc3)c3nccn23)cc[nH]1 [Compound 120, 4-[8-(4-[1,4′]Bipiperidinyl-1′-yl-phenylamino)-imidazo[1,2a]pyridi-5-yl]-1H-pyridin-2-one] |
| 0.101 to 1 | 0.101 to 1 | O=c1cc(-c2ccc(Nc3ccc(N4CCOCC4)cc3)c3nccn23)cc[nH]1 [Compound 68] |
| 0.101 to 1 | 0.101 to 1 | CC(C)N1CCN(c2ccc(Nc3ccc(-c4ccc(C(N)=O)cc4)n4ccnc34)cc2)CC1 [Compound 10, 4-{8-[4-(4-Isopropyl-piperazin-1-yl)-phenylamino]-imidazo[1,2-a]pyridin-5-yl}-benzamide] |
| 1 to 3 | 1 to 3 | O=c1cc(-c2ccc(Nc3ccc(C4CCN(CC(F)F)CC4)cc3)c3nccn23)cc[nH]1 [Compound 107, 4-(8-{4-[1-(2,2-Difluoro-ethyl)-piperidin-4-yl]-phenylamino)-imidazo[1,2-a]pyridin-5-yl)-1H-pyridin-2-one] |
| 0.101 to 1 | > 3 | CCOCCN1CCN(C(=O)c2ccc(Nc3ccc(-c4ccc5c(c4)CNC5=O)n4ccnc34)cc2)CC1 [Compound 40, 5-(8-(4-(4-(2-ethoxyethyl)piper-azine-1-carbonyl)phenyl-amino)imidazo[1,2-a]pyridin-5-yl)isoindolin-1-one] |
| 0.101 to 1 | 0.101 to 1 | O=c1cc(-c2ccc(Nc3ccc(N4CCOCC4)c(F)c3)c3nccn23)cc[nH]1 [Compound 65] |
| 0.101 to 1 | > 3 | CC(=O)N(C)C1CCN(C(=O)c2ccc(Nc3ccc(-c4ccc5c(c4)CNC5=O)n4ccnc34)cc2)C1 (stereo not drawn) [Compound 42, N-methyl-N-(1-(4-(5-(1-oxoisoindolin-5-yl)imidazo[1,2-a]pyridin-8-ylamino)benzoyl)pyrrolidin-3-yl)acetamide] |
| 0.101 to 1 | 0.101 to 1 | O=c1cc(-c2ccc(Nc3ccc(N4CCN(C5CCC5)CC4)cc3)c3nccn23)cc[nH]1 [Compound 85] |
| < 0.1 | 0.101 to 1 | CC(C)N1CCN(c2ccc(Nc3ccc(-c4cc[nH]c(=O)c4)n4ccnc34)cc2)CC1 [Compound 74] |
| 0.101 to 1 | 0.101 to 1 | O=c1cc(-c2ccc(Nc3ccc(N4CCN(C5CCCCC5)CC4)cc3)c3nccn23)cc[nH]1 [Compound 90] |
| 0.101 to 1 | 0.101 to 1 | CN(C)c1ccc(CNC(=O)c2ccc(Nc3ccc(-c4ccc5c(c4)CNC5=O)n4ccnc34)cc2)cc1 [Compound 33] |
